According to patent US5989596A, “Compositions comprising a depigmenting agent consisting of sulfites and metabisulfites and plant extracts for use in inhibiting melanogenesis or for depigmenting” (Coletica, priority 1997, dated 1999):

Legend:
isolated tyrosinase = test: In vitro test of the inhibition of isolated tyrosinase (rate of dopachrome formation from L-Dopa, 475 nm); format: biochemical
Excerpt: It is known that tyrosinase is capable of catalyzing the formation of L-Dopaquinone and then dopachrome from L-Dopa. Now, dopachrome is a colored compound whose appearance is possible to follow by UV visible spectrophotometry at 475 nm. The use of an active capable of modifying the enzymatic activity manifests itself by a variation of the rate of appearance of this colored molecule.
The ratio of the rates of formation of dopachrome enable precisely determining the activations or the inhibitions obtained with the different molecules tested.
The anti-tyrosinase activity was measured, for various concentrations of this composition, by simple dilution with demineralized water.

human melanocytes = details: J. Soc. Cosmeti. Chem. 42, 361-368 (1991); cited from earlier work
[1] = Organoleptic (smell) and stability tests on storage, 4 weeks at 45° C.; format: physicochemical; details: pH 6.5, 4 weeks at 45° C.
Protocol: Organoleptic tests have even been carried out on 5% sodium sulfite solutions or with 10% of a mulberry extract or 10 or with 20% with a lemon extract. These tests were led over 4 weeks at 45° C. at pH 5.5 and 6.5.
Also, organoleptic tests are then carried out on 5% sodium metabisulfite solutions with or without either 20% of a saxifrage extract or 10% of a grapefruit extract. These tests were led over 4 weeks at 45° C. at pH 5.5 and 6.5.
Organoleptic tests were also carried out on 5% potassium sulfite solutions with or without either 20% of a grape extract, or 10% of an oughon extract. It is to be noted that oughon is also called Scutelaria. These tests were led over 4 weeks at 45° C. at pH 5.5 and 6.5.
Organoleptic tests are then carried out on 5% potassium metabisulfite solutions with or without either 10% of a saxifrage extract, or 5% of an oughon extract +10% of a grapefruit extract. These tests were also led over 4 weeks at 45° C. at pH 5.5 and 6.5.

[2] = molecular target: T1, endogenous tyrosinase in melanocytes of human skin explants (Homo sapiens, UniProt P14679); test: Ex vivo tissue model on human skin explant, histochemical L-DOPA reaction (anti-tyrosinase activity); format: cell-based; details: 0.55% (w/v), with L-DOPA 0.05 M, 15 hours at 37° C.
T1 construct: oxidation of exogenous L-DOPA by endogenous tyrosinase; from tissue; host or cells: human abdominal skin explants from plastic surgery (melanocytes)
T1 sequence (P14679 19-529): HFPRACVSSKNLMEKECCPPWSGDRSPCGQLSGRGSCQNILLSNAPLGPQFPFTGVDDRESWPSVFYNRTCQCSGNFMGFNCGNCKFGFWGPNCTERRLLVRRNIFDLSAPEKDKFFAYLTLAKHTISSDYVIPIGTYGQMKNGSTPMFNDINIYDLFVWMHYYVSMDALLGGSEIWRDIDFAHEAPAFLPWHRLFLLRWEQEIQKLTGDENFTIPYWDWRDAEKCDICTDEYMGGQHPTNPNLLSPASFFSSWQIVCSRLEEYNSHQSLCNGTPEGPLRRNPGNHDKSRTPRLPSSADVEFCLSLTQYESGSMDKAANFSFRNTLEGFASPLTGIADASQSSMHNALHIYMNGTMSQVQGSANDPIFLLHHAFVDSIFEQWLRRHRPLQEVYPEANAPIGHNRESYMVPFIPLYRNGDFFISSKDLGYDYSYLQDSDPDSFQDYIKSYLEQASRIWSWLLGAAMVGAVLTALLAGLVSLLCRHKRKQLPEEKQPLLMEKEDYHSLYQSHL
Protocol: The oxidation of L-Dopa by the tyrosinase produces, in the melanocytes, a black pigment precursor of melanin which is easily detectable by optical microscopy with white light. The tyrosinase activity is determined by the intensity of the calorimetric reaction obtained.
A positive control and a negative control are also carried out in parallel.
The various products in the study are incubated in the presence of L-DOPA (0.05 M) for 15 hours at 37° C.
After fixing and inclusion in paraffin, the sections are colored with hemalun/eosin/saffron and with cresyl violet, they are then observed in white light by optical microscopy.
The tyrosinase activity is determined by the intensity of the calorimetric reaction obtained.

Compound	Results (inhibition) of tyrosinase (isolated tyrosinase; concentration level 0.01%)	Results (inhibition) of tyrosinase (isolated tyrosinase; concentration level 0.1%) [%]	Results (inhibition) of tyrosinase (isolated tyrosinase; concentration level 1%) [%]	Results (inhibition) of tyrosinase (isolated tyrosinase; concentration level 10%) [%]	IC50 (concentration for which half of the cells placed in culture are no longer living) (human melanocytes) [µg/mL]	tyrosinase inhibition (in words) (isolated tyrosinase; concentration 0.01%)	smell (organoleptic test) [1]	inhibition of the formation of melanic pigments [2]
O=S([O-])[O-].[Na+].[Na+] [sodium sulfite]	93.7%	100	100	100	–	–	–	–
O=C1O[C@H]([C@@H](O)CO)C(O)=C1O [ascorbic acid]	–	–	–	–	880	–	–	–
O=S([O-])S(=O)(=O)[O-].[Na+].[Na+] [sodium metabisulfite]	–	100	100	100	–	almost total	very strong smell	–
O=S([O-])[O-].[K+].[K+] [potassium sulfite]	more than 80%	98.10	92.7	100	–	–	very strong smell	–
Oc1ccc(O)cc1 [hydroquinone]	–	–	–	–	–	–	–	totally inhibits
O=S([O-])S(=O)(=O)[O-].[K+].[K+] [potassium metabisulfite]	more than 90%	93.63	100	100	–	–	–	–
